From patent publication US20040062729A1, “Photoprotective sunscreen compositions comprising 1,3,5-triazine compounds and triesters of benenetricarboxylic acids” (SOCIETE L'OREAL S.A., priority 2001, published 2004)

Details: 5 g 2,4-bis{[4-2-ethylhexyl-oxy)]-2-hydroxy]phenyl}-6-(4-methoxyphenyl)-1,3,5-triazine in 20 g solvent oil, heated to 83° C., cooled
Procedure: The solubilization time of 2,4-bis{[4-2-ethylhexyl-oxy)]-2-hydroxy]phenyl}-6-(4-methoxyphenyl)-1,3,5-triazine (screening agent) in various solvents is determined by means of the following test:
at room temperature, 20 g of solvent are added to 5 g of screening agent,
the mixture thus obtained is heated to 83° C. by means of a water bath,
after cooling, the possible presence of crystals is then observed under a microscope, between a slide and glass coverslips, in polarized light.

| Compound | Presence of crystals, storage in the cold (+4° C.) for 4 days | Presence of crystals, storage at room temperature for 4 days |
| --- | --- | --- |
| CCCCCCCCCCCCCCCC(=O)OCC(CC)CCCC (stereo not shown) [2-Ethylhexyl palmitate] | Crystals | Crystals |
| CCCCCCCCC(CCCCCC)C(=O)O (stereo not shown) [2-Hexyldecanoic acid] | Crystals | Crystals |
| CCCCCCCCCCC(CO)CCCCCCCC (stereo not shown) [2-Octyldodecanol] | Crystals | Crystals |
| C[Si]1(C)O[Si](C)(C)O[Si](C)(C)O[Si](C)(C)O[Si](C)(C)O1 [Cyclopentadimethylsiloxane] | Crystals | Crystals |
| CCCCC(CC)COC(=O)CCCCC(=O)OCC(CC)CCCC (stereo not shown) [Di(2-ethylhexyl) adipate] | Crystals | Crystals |
| CO[C@H]1CO[C@H]2[C@@H]1OC[C@H]2OC [Dimethyl isosorbide] | Crystals | Crystals |
| CCCCCCCCOC(=O)CC(O)C(=O)OCCCCCCCC (stereo not shown) [Dioctyl malate] | Crystals | Crystals |
| CC(CC(=O)OCC(COC(=O)CC(C)CC(C)(C)C)OC(=O)CC(C)CC(C)(C)C)CC(C)(C)C (stereo not shown) [Glyceryl triisononanoate] | Crystals | Crystals |
| CCCCCCCCC(CO)CCCCCC (stereo not shown) [Isocetyl alcohol, 2-hexyldecanol] | Crystals | Crystals |
| CC(C)CCCCCCCOC(=O)C(C)(C)C [Isodecyl neopentanoate] | Crystals | Crystals |
| CCCCCCCCCCCCCC(C)C [Isohexadecane] | Crystals | Crystals/Cloudy |
| CC(C)CCCCCCOC(=O)CCCCCC(C)C [Isononyl isononanoate] | Crystals | Crystals |
| CCCCC(CC)C(=O)OCC(C)(C)COC(=O)C(CC)CCCC (stereo not shown) [Neopentyl glycol di-2-ethylhexanoate] | Crystals | Crystals |
| CCCCCCCC/C=C\CCCCCCCCO [Oleyl alcohol] | Crystals | Crystals |
| Oxypropylenated butanediol (10 PO) | Crystals | Crystals |
| Oxypropylenated stearyl alcohol | Crystals | Crystals |
| Tridecyl trimellitate | Absence of | Absence of |
